Source: patent US20080287299A1, “Use of Imidazole and/or Triazole Derivatives for Combating Plant Pests; as Well as Method for Controlling Diseases/Insects/Mites/Nematodes and Weeds, Particularly Foliar and/or Soil Diseases” (priority 2005, published 2008)

What was measured:
Phakopsora pachyrhizi [1] = test: Greenhouse soybean rust test, plants at V6 stage, evaluated every 5 days; assay type: in vivo; conditions: for SEVERITY OF RUST (% IFA) 5 DAT / SEVERITY OF RUST (% IFA) 10 DAT / SEVERITY OF RUST (% IFA) 15 DAT: soybean
Excerpt: Recent tests carried out in greenhouses the laboratory of FMC Quimica do Brasil Ltda. in Uberaba, MG, Brazil, show the highly fungicidal effect of said specific imidazole and/or triazole derivatives in combating diseases of plants, particularly against the attack by the fungus Phakopsora pachyrhizi on soybeans, as described hereinafter. […]
(§1) Equipment: a manual sprayer commonly used in agriculture with 2-liter capacity.
Dosages: 50 to 500 grams per hectare of the active compound Fluconazole per liter diluted in water.
Evaluations of the Effectiveness of the Product: The evaluations were made every 5 days after application of the product, in a total of 4 evaluations. As an evaluation parameter one utilized the severity of the disease (percentage of foliar area attacked by rust) according to the diagrammatic scale of the EMBRAPA (FIG. 1). […]
Dosages: 50 to 500 grams per hectare of the active compound Itraconazole per liter diluted in water.

Phakopsora pachyrhizi [2] = test: Greenhouse soybean rust test, plants at V5 stage, evaluated every 7 days; assay type: in vivo; conditions: for SEVERITY OF RUST (% IFA) 7 DAT / SEVERITY OF RUST (% IFA) 14 DAT / SEVERITY OF RUST (% IFA) 21 DAT / SEVERITY OF RUST (% IFA) 28 DAT: soybean
Excerpt: Recent tests carried out in greenhouses the laboratory of FMC Quimica do Brasil Ltda. in Uberaba, MG, Brazil, show the highly fungicidal effect of said specific imidazole and/or triazole derivatives in combating diseases of plants, particularly against the attack by the fungus Phakopsora pachyrhizi on soybeans, as described hereinafter.
Experimental Outline Experimental Outline: entirely made with five repetitions, two plants per repetition, totaling 10 plants.
a) Preventive Mode: 30 days after plantation of the soybeans in plastic 2-liter pots and with corresponding volumes of soil, the soybean plants were at the V5 stage with six expanded folioles. At this moment, the compounds were sprayed and then, 48 hours afterwards, inoculation of the rust was effected. To effect the inoculation, one prepared a suspension of Phakopsora uredospores at the concentration of 2×10^4 spores/milliliters.
b) Healing mode: 30 days after plantation of the soybeans in 2-liter plastic pots and with a corresponding volume of soil, the soybean plants were at the V5 stage with six expanded folioles. At this moment, one effected the inoculation of the rust and then, 48 hours afterwards, the compounds were sprayed. To effect the inoculation, one prepared a suspension of Phakopsora uredospores at the concentration of 2×10^4 spores/milliliters.
as §1
Dosages: 50 to 300 grams per hectare of the active compound Itraconazole per liter diluted in water.
Evaluations of the Effectiveness of the Product: The evaluations were made every 7 days after application of the product, in a total of 4 evaluations. As an evaluation parameter one utilized the severity of the disease (percentage of foliar area attacked by rust) according to FIG. 1).
Dosages: 50 to 300 grams per hectare of the active compound Voriconazole per liter diluted in water.

[3] = from 50 grams of active ingredient per hectare

Structure (SMILES): CCC(C)n1ncn(-c2ccc(N3CCN(c4ccc(OC[C@H]5CO[C@](Cn6cncn6)(c6ccc(Cl)cc6Cl)O5)cc4)CC3)cc2)c1=O (mixture of isomers) [Itraconazole, 4-[4-[4-[4-[[2-(2,4-dichlorophenyl)-2-(1H-1,2,4-triazol-1-ylmethyl)-1,3-dioxolan-4-yl]methoxy]phenyl]-1-pipera-zinyl]phenyl]-2,4-dihydro-2-(1-methylpropyl) 3H-1,2,4-triazol-3-one]
- SEVERITY OF RUST (% IFA) 5 DAT (Phakopsora pachyrhizi [1]; Table 3: 50 g ac/ha): 6 % IFA
- SEVERITY OF RUST (% IFA) 10 DAT (Phakopsora pachyrhizi [1]; Table 3: 50 g ac/ha): 12 % IFA
- SEVERITY OF RUST (% IFA) 15 DAT (Phakopsora pachyrhizi [1]; Table 3: 50 g ac/ha): 11 % IFA
- SEVERITY OF RUST (% IFA) 5 DAT (Phakopsora pachyrhizi [1]; Table 3: 100 g ac/ha): 5 % IFA
- SEVERITY OF RUST (% IFA) 10 DAT (Phakopsora pachyrhizi [1]; Table 3: 100 g ac/ha): 13 % IFA
- SEVERITY OF RUST (% IFA) 15 DAT (Phakopsora pachyrhizi [1]; Table 3: 100 g ac/ha): 10 % IFA
- SEVERITY OF RUST (% IFA) 5 DAT (Phakopsora pachyrhizi [1]; Table 3: 150 g ac/ha): 5 % IFA
- SEVERITY OF RUST (% IFA) 10 DAT (Phakopsora pachyrhizi [1]; Table 3: 150 g ac/ha): 13 % IFA
- SEVERITY OF RUST (% IFA) 15 DAT (Phakopsora pachyrhizi [1]; Table 3: 150 g ac/ha): 10 % IFA
- SEVERITY OF RUST (% IFA) 5 DAT (Phakopsora pachyrhizi [1]; Table 3: 250 g ac/ha): 3 % IFA
- SEVERITY OF RUST (% IFA) 10 DAT (Phakopsora pachyrhizi [1]; Table 3: 250 g ac/ha): 14 % IFA
- SEVERITY OF RUST (% IFA) 15 DAT (Phakopsora pachyrhizi [1]; Table 3: 250 g ac/ha): 10 % IFA
- SEVERITY OF RUST (% IFA) 5 DAT (Phakopsora pachyrhizi [1]; Table 3: 500 g ac/ha): 0 % IFA
- SEVERITY OF RUST (% IFA) 10 DAT (Phakopsora pachyrhizi [1]; Table 3: 500 g ac/ha): 10 % IFA
- SEVERITY OF RUST (% IFA) 15 DAT (Phakopsora pachyrhizi [1]; Table 3: 500 g ac/ha): 0 % IFA
- effective in controlling soybean rust (Phakopsora pachyrhizi [1]; [3]): effective in controlling soybean rust

Structure (SMILES): C[C@@H](c1ncncc1F)[C@](O)(Cn1cncn1)c1ccc(F)cc1F (relative stereo) [Voriconazole, alpha-(2,4-difluorophenyll)-5-fluor-beta-methyl-alpha-(1H-1,2,4-triazol-1-yllmethyl)-(R—(R*,S*))-4-pirimidinetanole]
- SEVERITY OF RUST (% IFA) 7 DAT (Phakopsora pachyrhizi [2]; Table 5: 50 g ac/ha): 8 % IFA
- SEVERITY OF RUST (% IFA) 14 DAT (Phakopsora pachyrhizi [2]; Table 5: 50 g ac/ha): 10 % IFA
- SEVERITY OF RUST (% IFA) 21 DAT (Phakopsora pachyrhizi [2]; Table 5: 50 g ac/ha): 10 % IFA
- SEVERITY OF RUST (% IFA) 28 DAT (Phakopsora pachyrhizi [2]; Table 5: 50 g ac/ha): 13 % IFA
- SEVERITY OF RUST (% IFA) 7 DAT (Phakopsora pachyrhizi [2]; Table 5: 100 g ac/ha): 8 % IFA
- SEVERITY OF RUST (% IFA) 14 DAT (Phakopsora pachyrhizi [2]; Table 5: 100 g ac/ha): 8 % IFA
- SEVERITY OF RUST (% IFA) 21 DAT (Phakopsora pachyrhizi [2]; Table 5: 100 g ac/ha): 11 % IFA
- SEVERITY OF RUST (% IFA) 28 DAT (Phakopsora pachyrhizi [2]; Table 5: 100 g ac/ha): 18 % IFA
- SEVERITY OF RUST (% IFA) 7 DAT (Phakopsora pachyrhizi [2]; Table 5: 150 g ac/ha): 8 % IFA
- SEVERITY OF RUST (% IFA) 14 DAT (Phakopsora pachyrhizi [2]; Table 5: 150 g ac/ha): 8 % IFA
- SEVERITY OF RUST (% IFA) 21 DAT (Phakopsora pachyrhizi [2]; Table 5: 150 g ac/ha): 10 % IFA
- SEVERITY OF RUST (% IFA) 28 DAT (Phakopsora pachyrhizi [2]; Table 5: 150 g ac/ha): 18 % IFA
- SEVERITY OF RUST (% IFA) 7 DAT (Phakopsora pachyrhizi [2]; Table 5: 200 g ac/ha): 4 % IFA
- SEVERITY OF RUST (% IFA) 14 DAT (Phakopsora pachyrhizi [2]; Table 5: 200 g ac/ha): 7 % IFA
- SEVERITY OF RUST (% IFA) 21 DAT (Phakopsora pachyrhizi [2]; Table 5: 200 g ac/ha): 11 % IFA
- SEVERITY OF RUST (% IFA) 28 DAT (Phakopsora pachyrhizi [2]; Table 5: 200 g ac/ha): 11 % IFA
- SEVERITY OF RUST (% IFA) 7 DAT (Phakopsora pachyrhizi [2]; Table 5: 300 g ac/ha): 2 % IFA
- SEVERITY OF RUST (% IFA) 14 DAT (Phakopsora pachyrhizi [2]; Table 5: 300 g ac/ha): 0 % IFA
- SEVERITY OF RUST (% IFA) 21 DAT (Phakopsora pachyrhizi [2]; Table 5: 300 g ac/ha): 1 % IFA
- SEVERITY OF RUST (% IFA) 28 DAT (Phakopsora pachyrhizi [2]; Table 5: 300 g ac/ha): 5 % IFA
- effective in controlling soybean rust (Phakopsora pachyrhizi [2]; [3]): effective in controlling soybean rust
